Experimental data from US11299478B2, “2-cyanopyrimidin-4-yl carbamate or urea derivative or salt thereof, and pharmaceutical composition including same” (HANLIM PHARMACEUTICAL CO., LTD., priority 2018, dated 2022).

Legend:
Format in all cases: biochemical
cathepsin S = cathepsin S (Homo sapiens, UniProt P25774); experiment: Inhibitory activity assay against cathepsin S (enzyme assay); settings: Z-Phe-Arg-AMC 70 μM, enzyme 3 nM, pH 6.5, 45 minutes
Procedure: In order to measure the enzyme activity of cathepsin S, a buffer solution (pH 6.5) consisting of 50 mM MES, 2.5 mM DTT, 1.0 mM EDTA, 0.001% bovine serum albumin (BSA), and 10% DMSO was prepared. The substrate, the test material, and the enzyme were mixed in the buffer solution in a predetermined concentration. The Z-Phe-Arg-AMC substrate was used in the final concentration of 70 μM. The test material was used in the final concentrations of 10.0 μM, 3.33 μM, 1.11 μM, 0.370 μM, 0.123 μM, 0.0412 μM, 0.0137 μM, 0.00457 μM, 0.00152 μM, and 0.000508 μM, respectively. The cathepsin S enzyme was used in the final concentration of 3 nM. The final volume of the enzyme reaction solution was 10 μL.
After reacting the mixture of substrate, test material, and enzyme for 45 minutes, the enzyme activity was measured with the EnVision (Perkin Elmer) microplate reader at an absorption wavelength of 340 nm and an emission wavelength of 460 nm. IC50 values were determined using 4-parameter logistic curve fit program of GraphPad Prism.

cathepsin L = cathepsin L (Homo sapiens, UniProt P07711); experiment: Inhibitory activity assay against cathepsin L (enzyme assay); settings: Z-Phe-Arg-AMC 2 μM, enzyme 3 nM, pH 5.5, 30 minutes
Procedure: In order to measure the enzyme activity of cathepsin L, a buffer solution (pH 5.5) consisting of 50 mM MES, 2.5 mM DTT, 2.5 mM EDTA, 0.005% Polysorbate 20, and 10% DMSO was prepared. The substrate, the test material, and the enzyme were mixed in the buffer solution in a predetermined concentration. The Z-Phe-Arg-AMC substrate was used in the final concentration of 2 μM. The test material was used in the final concentrations of 10.0 μM, 3.33 μM, 1.11 μM, 0.370 μM, 0.123 μM, 0.0412 μM, 0.0137 μM, 0.00457 μM, 0.00152 μM, and 0.000508 μM, respectively. The cathepsin L enzyme was used in the final concentration of 3 nM. The final volume of the enzyme reaction solution was 10 μL. After reacting the mixture of substrate, test material, and enzyme for 30 minutes, the enzyme activity was measured with the EnVision (Perkin Elmer) microplate reader at an absorption wavelength of 340 nm and an emission wavelength of 460 nm. IC50 values were determined using 4-parameter logistic curve fit program of GraphPad Prism.

cathepsin B = cathepsin B (Homo sapiens, UniProt P07858); experiment: Inhibitory activity assay against cathepsin B (enzyme assay); settings: Z-Arg-Arg-AMC 40 μM, enzyme 1 nM, pH 6.0, 90 minutes
Procedure: In order to measure the enzyme activity of cathepsin B, a buffer solution (pH 6.0) consisting of 50 mM MES, 5 mM DTT, 2.5 mM EDTA, 0.005% Polysorbate 20, and 10% DMSO was prepared. The substrate, the test material, and the enzyme were mixed in the buffer solution in a predetermined concentration. The Z-Arg-Arg-AMC substrate was used in the final concentration of 40 μM. The test material was used in the final concentrations of 10.0 μM, 3.33 μM, 1.11 μM, 0.370 μM, 0.123 μM, 0.0412 μM, 0.0137 μM, 0.00457 μM, 0.00152 μM, and 0.000508 μM, respectively. The cathepsin B enzyme was used in the final concentration of 1 nM. The final volume of the enzyme reaction solution was 10 μL. After reacting the mixture of substrate, test material, and enzyme for 90 minutes, the enzyme activity was measured with the EnVision (Perkin Elmer) microplate reader at an absorption wavelength of 340 nm and an emission wavelength of 460 nm. IC50 values were determined using 4-parameter logistic curve fit program of GraphPad Prism.

cathepsin K = target: T1, cathepsin K (Homo sapiens, UniProt P43235); experiment: Inhibitory activity assay against cathepsin K (enzyme assay); settings: Z-Phe-Arg-AMC 10 μM, enzyme 1 nM, pH 5.5, 30 minutes
T1 sequence (P43235 115-329): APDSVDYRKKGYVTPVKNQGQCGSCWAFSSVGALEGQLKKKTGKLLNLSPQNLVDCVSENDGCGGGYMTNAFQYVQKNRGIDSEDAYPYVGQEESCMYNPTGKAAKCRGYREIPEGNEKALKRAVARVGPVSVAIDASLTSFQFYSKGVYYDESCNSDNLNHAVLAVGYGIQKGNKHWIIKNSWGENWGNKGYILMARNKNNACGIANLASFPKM
Procedure: In order to measure the enzyme activity of cathepsin K, a buffer solution (pH 5.5) consisting of 50 mM 2-(N-morpholino)ethanesulfonic acid (MES), 2 mM dithiothreitol (DTT), 2.5 mM ethylenediaminetetraacetic acid (EDTA), 0.01% Triton X-100, and 10% dimethyl sulfoxide (DMSO) was prepared. The substrate, the test material, and the enzyme were mixed in the buffer solution in a predetermined concentration. The Z-Phe-Arg-AMC substrate was used in the final concentration of 10 μM. The test material was used in the final concentrations of 10.0 μM, 3.33 μM, 1.11 μM, 0.370 μM, 0.123 μM, 0.0412 μM, 0.0137 μM, 0.00457 μM, 0.00152 μM, and 0.000508 μM, respectively. The cathepsin K enzyme was used in the final concentration of 1 nM. The final volume of the enzyme reaction solution was 10 μL. After reacting the mixture of substrate, test material, and enzyme for 30 minutes, the enzyme activity was measured with the Synergy Neo (Biotek) microplate reader at an absorption wavelength of 355 nm and an emission wavelength of 460 nm. IC50 values were determined using 4-parameter logistic curve fit program of GraphPad Prism.

Sequence of cathepsin L (P07711 114-333, species assumed): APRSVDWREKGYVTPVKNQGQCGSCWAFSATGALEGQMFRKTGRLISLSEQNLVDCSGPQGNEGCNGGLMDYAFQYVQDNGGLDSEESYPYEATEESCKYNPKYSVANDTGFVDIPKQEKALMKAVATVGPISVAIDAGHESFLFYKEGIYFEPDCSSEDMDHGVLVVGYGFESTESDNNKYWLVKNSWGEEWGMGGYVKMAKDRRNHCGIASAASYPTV
Sequence of cathepsin S (P25774 115-331, species assumed): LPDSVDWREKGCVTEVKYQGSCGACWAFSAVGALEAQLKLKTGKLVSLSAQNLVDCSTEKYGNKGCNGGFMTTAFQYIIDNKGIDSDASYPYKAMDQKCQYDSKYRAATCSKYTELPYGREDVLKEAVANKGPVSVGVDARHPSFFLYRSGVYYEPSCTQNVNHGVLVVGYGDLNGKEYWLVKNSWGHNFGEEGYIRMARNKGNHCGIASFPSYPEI

SMILES	IC50 (cathepsin S)	IC50 (cathepsin L)	IC50 (cathepsin B)	IC50 (cathepsin K)
N#Cc1nccc(C2(NC(=O)OCc3ccccc3Cl)CCCCC2)n1 [Example 28, 2-chlorobenzyl (1-(2-cyanopyrimidin-4-yl)cyclohexyl)carbamate]	> 10000 nM	8780 nM	> 10000 nM	35.8 nM
CS(=O)(=O)c1ccc(-c2ccc(COC(=O)NC3(c4ccnc(C#N)n4)CCCC3)cc2)cc1 [Example 29, (4′-(methylsulfonyl)-[1,1′-biphenyl]-4-yl)methyl (1-(2-cyanopyrimidin-4-yl)cyclopentyl)carbamate]	> 10000 nM	> 10000 nM	> 10000 nM	1570 nM
CS(=O)(=O)c1ccc(-c2cccc(COC(=O)NC3(c4ccnc(C#N)n4)CCCC3)c2)cc1 [Example 30, (4′-(methylsulfonyl)-[1,1′-biphenyl]-3-yl)methyl (1-(2-cyanopyrimidin-4-yl)cyclopentyl)carbamate]	9450 nM	> 10000 nM	> 10000 nM	355 nM
N#Cc1nccc(C2(NC(=O)OCc3ccc(-c4ccc(N5CCOCC5)cc4)cc3)CCCC2)n1 [Example 31, (4′-morpholino-[1,1′-biphenyl]-4-yl)methyl (1-(2-cyanopyrimidin-4-yl)cyclopentyl)carbamate]	> 10000 nM	> 10000 nM	> 10000 nM	934 nM
N#Cc1nccc(C2(NC(=O)OCc3ccc(-c4ccc(F)nc4)cc3)CCCC2)n1 [Example 33, 4-(6-fluoropyridin-3-yl)benzyl (1-(2-cyanopyrimidin-4-yl)cyclopentyl)carbamate]	> 10000 nM	> 10000 nM	> 10000 nM	1620 nM
N#Cc1nccc(C2(NC(=O)OCc3cccc(-c4ccc(F)nc4)c3)CCCC2)n1 [Example 35, 3-(6-fluoropyridin-3-yl)benzyl (1-(2-cyanopyrimidin-4-yl)cyclopentyl)carbamate]	> 10000 nM	> 10000 nM	> 10000 nM	492 nM
Cn1ncc2ccc(-c3cccc(COC(=O)NC4(c5ccnc(C#N)n5)CCCC4)c3)cc21 [Example 36, 3-(1-methyl-1H-indazol-6-yl)benzyl (1-(2-cyanopyrimidin-4-yl)cyclopentyl)carbamate]	7350 nM	> 10000 nM	> 10000 nM	31.9 nM
Cc1cccc(NC(=O)NC2(c3ccnc(C#N)n3)CCCC2)c1 [Example 38, 1-(1-(2-cyanopyrimidin-4-yl)cyclopentyl)-3-(meta-tolyl)urea]	> 10000 nM	8060 nM	> 10000 nM	69.6 nM
N#Cc1nccc(C2(NC(=O)NCc3ccccc3F)CCCC2)n1 [Example 40, 1-(1-(2-cyanopyrimidin-4-yl)cyclopentyl)-3-(2-fluorobenzyl)urea]	> 10000 nM	9230 nM	> 10000 nM	93.3 nM
N#Cc1nccc(C2(NC(=O)Nc3ccccc3)CCCC2)n1 [Example 41, 1-(1-(2-cyanopyrimidin-4-yl)cyclopentyl)-3-phenylurea]	> 10000 nM	8180 nM	> 10000 nM	39.9 nM
N#Cc1nccc(C2(NC(=O)NCc3ccccc3)CCCC2)n1 [Example 42, 1-benzyl-3-(1-(2-cyanopyrimidin-4-yl)cyclopentyl)urea]	> 10000 nM	7540 nM	> 10000 nM	31.2 nM
N#Cc1nccc(C2(NC(=O)NCc3ccc4c(c3)OCO4)CCCC2)n1 [Example 43, 1-(benzo[d][1,3]dioxol-5-ylmethyl)-3-(1-(2-cyanopyrimidin-4-yl)cyclopentyl)urea]	> 10000 nM	> 10000 nM	> 10000 nM	462 nM
N#Cc1nccc(C2(NC(=O)Nc3ccc(Oc4ccccc4)cc3)CCCC2)n1 [Example 44, 1-(1-(2-cyanopyrimidin-4-yl)cyclopentyl)-3-(4-phenoxyphenyl)urea]	> 10000 nM	> 10000 nM	> 10000 nM	18.5 nM
